Data taken from patent US5200409A, “Composition and use of substituted 1,3-dithiolo-and 1,4-dithiinoquinoxalines as an antimicrobial” (The Dow Chemical Company, priority 1992, dated 1993).
In brackets after ≈: the same amount, converted by molar mass. Like-named read-outs stand apart in the source and are kept apart here.

Columns and labels:
[1] = system: Klebsiella pneumoniae (Kp); experiment: Minimum inhibitory concentration (MIC) in nutrient agar; format: cell-based, Klebsiella pneumoniae ATCC 8308
Protocol: (§1) The minimum inhibitory concentration (MIC) for the compounds listed in Table I is determined for 9 bacteria, using nutrient agar: and 7 yeast and fungi, using malt yeast agar. A one percent solution of the test compound is prepared in a mixture of acetone and water. Nutrient agar is prepared at pH 6.8, representing a neutral medium, and at pH 8.2, representing an alkaline medium. The nutrient agars are prepared by adding 23 g of nutrient agar to one-liter of deionized water. In addition, the alkaline medium is prepared by adjusting a 0.04M solution of N-[tris-(hydroxymethyl)methyl]-glycine buffered deionized water with concentrated sodium hydroxide to a pH of […]. Malt yeast agar is prepared by adding 3 g yeast extract and 45 g malt agar per liter of deionized water. The specific agar is dispensed in 30 ml aliquots into 25×200 mm test tubes, capped and autoclaved for 15 minutes at 115° C. The test tubes containing the agar are cooled in a water bath until the temperature of the agar is 48° C. Then, an appropriate amount of the one percent solution of the test compound is added (except in the controls where no compound is added) to the respective test tubes so that the final concentrations are 500, 250, 100, 50, 25, 10, 5, 2.5, 1.0 and zero parts per million of the test compound in the agar, thus having a known concentration of test compound dispersed therein. The contents of the test tubes are then transferred to respective petri plates. After drying for 24 hours, the petri plates containing nutrient agar are inoculated with bacteria and those containing malt yeast agar are inoculated with yeast and fungi.
(§2) The inoculation with bacteria is accomplished by using the following procedure. Twenty-four hour-cultures of each of the bacteria are prepared by incubating the respective bacteria in tubes containing nutrient broth for 24 hours at 30° C. in a shaker. Dilutions of each of the 24 hour-cultures are made so that nine separate suspensions (one for each of the nine test bacteria) are made, each containing 10^8 colony forming units (CFU) per ml of suspension of a particular bacteria. Aliquots of 0.3 ml of each of the bacterial suspensions are used to fill the individual wells of Steer's Replicator. For each microbial suspension, 0.3 ml was used to fill three wells (i.e., three wells of 0.3 ml each) so that for the nine different bacteria, 27 wells are filled. The Steer's Replicator is then used to inoculate both the neutral and alkaline pH nutrient agar petri plates.
(§3) The inoculated petri plates are incubated at 30° C. for 48 hours and then read to determine if the test compound which is incorporated into the agar prevented growth of the respective bacteria.
(§4) Table II lists the bacteria, yeast and fungi used in the MIC test described above along with their respective American Type Culture Collection (ATCC) identification numbers.

Bacillus subtilis (Bs) = experiment: as above; format: cell-based, Bacillus subtilis ATCC 8473
Protocol: as §1, §2, §3, §4

Fusarium oxysporum (Fo) = experiment: Minimum inhibitory concentration (MIC) in malt yeast agar; format: cell-based, Fusarium oxysporum ATCC 48112; conditions: malt yeast agar; 30° C.; 72 hours for fungi; read-out: Minimum Inhibitory Concentration, Fo
Protocol: as §1
(§5) The inoculation with the yeast and fungi is accomplished as follows. Cultures of yeast and fungi are incubated for seven days on malt yeast agar at 30° C. These cultures are used to prepare suspensions by the following procedure. A suspension of each organism is prepared by adding 10 ml of sterile saline and 10 microliters of octylphenoxy polyethoxy ethanol to the agar slant of yeast or fungi. The sterile saline/octylphenoxy polyethoxy ethanol solution is then agitated with a sterile swab to suspend the microorganism grown on the slant. Each resulting suspension is diluted into sterile saline (1 part suspension: 9 parts sterile saline). Aliquots of these dilutions are placed in individual wells of Steer's Replicator and petri plates inoculated as previously described. The petri plates are incubated at 30° C. and read after 48 hours for yeast and 72 hours for fungi.
as §4

[2] = system: Staphylococcus aureus (Sa); experiment: Minimum inhibitory concentration (MIC) in nutrient agar; format: cell-based, Staphylococcus aureus ATCC 6538
Protocol: as §1, §2, §3, §4

[3] = system: Aureobasidium pullulan (Ap); experiment: Minimum inhibitory concentration (MIC) in malt yeast agar; format: cell-based, Aureobasidium pullulan ATCC 16622; conditions: read-out: Minimum Inhibitory Concentration, Ap
Protocol: as §1, §5, §4

[4] = system: Penicillium chrysogenum (Pc); experiment: as above; format: cell-based, Penicillium chrysogenum ATCC 9480; conditions: malt yeast agar; 30° C.; 72 hours for fungi; read-out: Minimum Inhibitory Concentration, Pc
Protocol: as §1, §5, §4

[5] = system: Saccharomyces cerevisiae (Sc); experiment: as above; format: cell-based, Saccharomyces cerevisiae ATCC 4105; conditions: malt yeast agar, 30° C., 48 hours for yeast, read-out: Minimum Inhibitory Concentration, Sc
Protocol: as §1, §5, §4

[6] = system: Salmonella choleraesuis (Sc); experiment: Minimum inhibitory concentration (MIC) in nutrient agar; format: cell-based, Salmonella choleraesuis ATCC 10708; conditions: Salmonella enterica, 48 h
Protocol: as §1, §2, §3, §4

[7] = system: Pseudomonas aeruginosa (Pa); experiment: as above; format: cell-based, Pseudomonas aeruginosa ATCC 10145; conditions: 48 hours
Protocol: as §1, §2, §3, §4

Candida albicans (Ca) = experiment: Minimum inhibitory concentration (MIC) in malt yeast agar; format: cell-based, Candida albicans ATCC 10231; conditions: malt yeast agar; 30° C.; 48 hours for yeast; read-out: Minimum Inhibitory Concentration, Ca
Protocol: as §1, §5, §4

Escherichia coli (Ec) = experiment: Minimum inhibitory concentration (MIC) in nutrient agar; format: cell-based, Escherichia coli ATCC 11229; conditions: 48 h
Protocol: as §1, §2, §3, §4

Trichoderma viride (Tv) = experiment: Minimum inhibitory concentration (MIC) in malt yeast agar; format: cell-based, Trichoderma viride ATCC 8678; conditions: read-out: Minimum Inhibitory Concentration, Tv
Protocol: as §1, §5, §4

[8] = system: Pseudomonas aeruginosa (PRD-10); experiment: Minimum inhibitory concentration (MIC) in nutrient agar; format: cell-based, Pseudomonas aeruginosa ATCC 15442; conditions: 48 h
Protocol: as §1, §2, §3, §4

Aspergillus niger (An) = experiment: Minimum inhibitory concentration (MIC) in malt yeast agar; format: cell-based, Aspergillus niger ATCC 16404; conditions: malt yeast agar; 30° C.; 72 hours for fungi; read-out: Minimum Inhibitory Concentration, An
Protocol: as §1, §5, §4

Proteus vulgaris (Pv) = experiment: Minimum inhibitory concentration (MIC) in nutrient agar; format: cell-based, Proteus vulgaris ATCC 881; conditions: 48 h
Protocol: as §1, §2, §3, §4

[9] = system: Enterobacter aerogenes (Ea); experiment: as above; format: cell-based, Enterobacter aerogenes ATCC 13048; conditions: Klebsiella aerogenes, 48 h
Protocol: as §1, §2, §3, §4

[10] = 48 h, pH 8.2, read-out: Minimum Inhibitory Concentration, Kp
[11] = pH 6.8, nutrient agar, 30° C., 48 hours, read-out: Minimum Inhibitory Concentration, Kp
[12] = 48 h, pH 6.8, read-out: Minimum Inhibitory Concentration, Bs
[13] = 48 h, pH 8.2, read-out: Minimum Inhibitory Concentration, Bs
[14] = 48 h, pH 8.2, read-out: Minimum Inhibitory Concentration, Sa
[15] = pH 6.8, nutrient agar, 30° C., 48 hours, read-out: Minimum Inhibitory Concentration, Sa
[16] = pH 6.8, read-out: Minimum Inhibitory Concentration, Sc
[17] = pH 8.2, read-out: Minimum Inhibitory Concentration, Sc
[18] = pH 6.8, read-out: Minimum Inhibitory Concentration, Ec
[19] = pH 8.2, read-out: Minimum Inhibitory Concentration, Ec
[20] = malt yeast agar, 30° C., 72 hours for fungi
[21] = pH 6.8, read-out: Minimum Inhibitory Concentration, PRD
[22] = pH 8.2, read-out: Minimum Inhibitory Concentration, PRD
[23] = pH 6.8, read-out: Minimum Inhibitory Concentration, Pv
[24] = pH 8.2, read-out: Minimum Inhibitory Concentration, Pv
[25] = pH 6.8, read-out: Minimum Inhibitory Concentration, Ea
[26] = pH 8.2, read-out: Minimum Inhibitory Concentration, Ea

Row | Structure (SMILES) | MIC [1, 10] [µg/mL] | MIC [1, 11] [µg/mL] | MIC (Bacillus subtilis (Bs); [12]) [µg/mL] | MIC (Bacillus subtilis (Bs); [13]) [µg/mL] | MIC (Fusarium oxysporum (Fo)) [µg/mL] | MIC [4] [µg/mL] | MIC [5] [µg/mL] | MIC [6, 16] [µg/mL] | MIC [6, 17] [µg/mL] | MIC ([7]; pH 6.8, 30° C.) [µg/mL] | MIC ([7]; pH 8.2, 30° C.) [µg/mL] | MIC (Candida albicans (Ca)) [µg/mL] | MIC (Escherichia coli (Ec); [18]) [µg/mL] | MIC (Escherichia coli (Ec); [19]) [µg/mL] | MIC [8, 21] [µg/mL] | MIC [8, 22] [µg/mL] | MIC (Proteus vulgaris (Pv); [23]) [µg/mL] | MIC (Proteus vulgaris (Pv); [24]) [µg/mL] | MIC [9, 25] [µg/mL] | MIC [9, 26] [µg/mL] | also measured
1 | N#CC(C#N)=C1Sc2nc3ccc(C(=O)c4ccccc4)cc3nc2S1 [W, 6-benzoyl-1,3-dithiolo-(4,5-b)-quinoxaline-2-ylidene-propanedinitrile] | > 500 | > 500 | > 500 | > 500 | > 500 | > 500 | > 500 | > 500 | > 500 | > 500 | > 500 | > 500 | > 500 | > 500 | > 500 | > 500 | > 500 | > 500 | > 500 | > 500 | MIC [2, 14]: > 500 µg/mL; MIC [2, 15]: > 500 µg/mL; MIC ([3]; malt yeast agar, 30° C., 48 hours for yeast and 72 hours for fungi): 500 µg/mL (≈ 1340 µM); MIC (Trichoderma viride (Tv); [20]): > 500 µg/mL; MIC (Aspergillus niger (An)): > 500 µg/mL
2 | COc1ccc2nc3c(nc2c1)SC(C#N)=C(C#N)S3 [J, 7-methoxy-1,4-dithiino-(2,3-b)-quinoxaline-2,3-dicarbonitrile] | > 500 | > 500 |  |  | 25 (≈ 83.8 µM) | 25 (≈ 83.8 µM) | < 10 | > 500 | > 500 | > 500 | > 500 | 25 (≈ 83.8 µM) | > 500 | > 500 | > 500 | > 500 | > 500 | > 500 | > 500 | > 500 | MIC (Bacillus subtilis (Bs); pH 6.8, nutrient agar, 30° C., 48 hours, read-out: Minimum Inhibitory Concentration, Bs): < 10 µg/mL; MIC (Bacillus subtilis (Bs); pH 8.2, nutrient agar, 30° C., 48 hours, read-out: Minimum Inhibitory Concentration, Bs): 25 µg/mL (≈ 83.8 µM); MIC ([2]; 48 h, pH 6.8, read-out: Minimum Inhibitory Concentration, Sa): < 10 µg/mL; MIC ([2]; pH 8.2, nutrient agar, 30° C., 48 hours, read-out: Minimum Inhibitory Concentration, Sa): 25 µg/mL (≈ 83.8 µM); MIC (Trichoderma viride (Tv); 72 h): 100 µg/mL (≈ 335 µM); MIC (Aspergillus niger (An)): 25 µg/mL (≈ 83.8 µM)
3 | N#CC(C#N)=C1Sc2nc3ccc(C(F)(F)F)cc3nc2S1 [T, 6-trifluoromethyl-1,3-dithiolo-(4,5-b)-quinoxaline-2-ylidene-propanedinitrile] | > 500 | > 500 | > 500 | > 500 | > 500 | 250 (≈ 743 µM) | > 500 | > 500 | > 500 | > 500 | > 500 | > 500 | > 500 | > 500 | > 500 | > 500 | > 500 | > 500 | > 500 | > 500 | MIC [2, 14]: > 500 µg/mL; MIC [2, 15]: > 500 µg/mL; MIC [3]: 250 µg/mL (≈ 743 µM); MIC (Trichoderma viride (Tv); [20]): > 500 µg/mL
